Entries after “also recorded” stand apart in the source; their conditions may differ. No end group written: not given here.
Tests used:
[1] = target: recombinant SARS-CoV-2 spike receptor-binding domain (rRBD); assay: Surface plasmon resonance; settings: read-out: KD (abstract, rounded)
[2] = test system: His-tagged rRBD; format: binding, SARS-CoV-2
[3] = test system: RBD:ACE2 binding; format: cell-based, SARS-CoV-2 RBD; human ACE2
[4] = test system: CoV-2 spike-pseudotyped virus infection of ACE2-expressing HEK 293T cells; format: cell-based, SARS-CoV-2 (spike pseudotyped lentivirus); human cells
[5] = test system: VSVG-pseudotyped virus infection of ACE2-expressing HEK 293T cells; format: cell-based
[6] = test system: various viruses, including coronaviruses; settings: ref Kim et al., 2018; cited from earlier work
[7] = cationic, 41 amino acids; ref Sawai et al., 2001; cited from earlier work
[8] = ref Koeninger et al., 2020; cited from earlier work
[9] = Hemolytic activity
[10] = test system: RBD; settings: bilayer interferometry; ref Wang et al., 2021a; cited from earlier work

Substance	Kd [1]	co-precipitation with His-RBD (in words) [2]	effect on RBD:ACE2 binding (in words) [3]	effect on CoV-2 spike-mediated infection (in words) [4]	inhibition of VSVG-pseudotyped virus infection (in words) [5]	antiviral effect (in words) [6]	charge [7]	concentration at which hemolytic activity begins [8]	ratio of hemolytic concentration to IC50 [9]	binding interaction with RBD (in words) [10]
GIGDPVTCLKSGAICHPVFCPRRYKQIGTCGLPGTKCCKKP (disulfide (positions not given here)) [hBD-2, Human beta defensin 2]	~2 µM	significant binding of hBD-2 to His-RBD	preventing it from binding to ACE2-expressing cells; also recorded: competitively decreased RBD-ACE2 binding; also recorded: reduced RBD:ACE2 binding; also recorded: blocks spike-RBD:ACE2 binding	dose-dependently decreased entry of CoV-2 spike-mediated infection; also recorded: inhibited viral entry into ACE2-expressing HEK 293T cells in a dose-dependent manner	not VSVG-mediated infection; also recorded: no inhibition	interrupt viral infection of various viruses, including coronaviruses	+6	70 µM	25 times	
LL-37										strong binding interaction

Reference: paper PMC8808565 (iScience, 2022)
